Experimental data published in patent US10377791B2, “Therapeutically active estratrienthiazole derivatives as inhibitors of 17 B-hydroxysteroid dehydrogenase, type 1” (FORENDO PHARMA LTD, priority 2013, dated 2019).
Like-named read-outs stand apart in the source and are kept apart here.

Assays:
[1] = molecular target: T1, recombinant human 17β-HSD1 (Homo sapiens, UniProt P14061); test: Inhibition of recombinant human 17β-HSD1; format: biochemical; conditions: read-out: 17β-HDS1 Inhibition % at 1 μM
T1 construct: made in house; host or cells: Sd9 (Sf9) insect cells, baculovirus (Bac to Bac Expression System)
T1 sequence (P14061 1-328): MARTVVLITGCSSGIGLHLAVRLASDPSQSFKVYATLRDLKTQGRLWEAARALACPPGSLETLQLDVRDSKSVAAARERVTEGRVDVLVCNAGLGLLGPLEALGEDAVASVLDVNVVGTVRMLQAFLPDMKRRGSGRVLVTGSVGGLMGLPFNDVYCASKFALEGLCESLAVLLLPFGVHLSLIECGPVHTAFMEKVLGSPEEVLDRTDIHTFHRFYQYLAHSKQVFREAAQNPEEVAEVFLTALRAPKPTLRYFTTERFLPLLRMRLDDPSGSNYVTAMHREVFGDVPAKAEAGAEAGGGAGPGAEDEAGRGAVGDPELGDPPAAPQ
Experimental: Recombinant baculovirus was generated by the “Bac to Bac Expression System” (Invitrogen). Recombinant bacmid was transfected to Sd9 insect cells using “Cellfectin Reagent” (Invitrogen). 60 h later cells were harvested; the microsomal fraction was isolated as described by Puranen, T. J., Poutanen, M. H., Peltoketo, H. E., Vihko, P. T. and Vihko, R. K. (1994) Site-directed mutagenesis of the putative active site of human 17 β-hydroxysteroid dehydrogenase type 1. Biochem. J. 304: 289-293. Aliquots were stored frozen until determination of enzymatic activity.
Recombinant protein (1 μg/ml) was incubated in 20 mM KH2PO4 pH 7.4 with 30 nM estrone (including 800 000 cpm/ml of ^3H-estrone) and 1 mM NADPH for 30 min at RT, in the presence of the potential inhibitor at concentrations 1 μM or 0.1 μM. Inhibitor stock solutions were prepared in DMSO. Final concentration of DMSO was adjusted to 1% in all samples. The enzyme reaction was stopped by addition of 10% trichloroacetic acid (final concentration). Samples were centrifuged in a microtiter plate at 4000 rpm for 10 min. Supernatants were applied to reverse phase HPLC on a Waters Symmetry C18 column, equipped with a Waters Sentry Guard column. Isocratic HPLC runs were performed at RT at a flow rate of 1 ml/min in acetonitrile:water 48:52 as running solvent. Radioactivity was monitored in the eluate by a Packard Flow Scintillation Analyzer. Total radioactivity for estrone and estradiol were determined in each sample and percent conversion of estrone to estradiol was calculated according to the following formula:
(§1) [formula] Percent inhibition was calculated flowingly: % inhibition=100−% conversion

[2] = molecular target: T2, recombinant human 17β-HSD2 (Homo sapiens, UniProt P37059); test: Inhibition of recombinant human 17β-HSD2; format: biochemical; conditions: read-out: 17β-HSD2 Inhibition % at 1 μM
T2 construct: made in house; host or cells: Sd9 (Sf9) insect cells, baculovirus (Bac to Bac Expression System)
T2 sequence (P37059 1-387): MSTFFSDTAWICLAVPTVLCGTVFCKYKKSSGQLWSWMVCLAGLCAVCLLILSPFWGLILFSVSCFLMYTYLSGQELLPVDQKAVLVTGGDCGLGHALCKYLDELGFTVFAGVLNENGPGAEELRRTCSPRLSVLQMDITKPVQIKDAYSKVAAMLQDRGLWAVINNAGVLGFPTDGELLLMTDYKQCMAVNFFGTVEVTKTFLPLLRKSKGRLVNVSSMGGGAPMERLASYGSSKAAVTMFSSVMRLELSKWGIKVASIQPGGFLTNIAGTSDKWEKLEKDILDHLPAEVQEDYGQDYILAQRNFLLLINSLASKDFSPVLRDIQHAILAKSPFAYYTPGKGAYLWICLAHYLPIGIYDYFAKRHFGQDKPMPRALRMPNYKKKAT
Experimental: Similarly to 17β-HSD1 the Recombinant baculovirus was generated by the “Bac to Bac Expression System” (Invitrogen). Recombinant bacmid was transfected to Sd9 insect cells using “Cellfectin Reagent” (Invitrogen). 60 h later cells were harvested and supernatant were fractionated by the following protocol: • cells were dissolved into 40 ml of A-buffer (40 mM TRIS, pH8.0, 20% glycerol, 20 μM NAD, 0.4 mM PMSF, 150 mM NaCl, 0.5% dodecyl-β-maltoside+protease inhibitor cocktail) • cells were sonicated • lysate was incubated on ice for 15 min • lysate was centrifuged 5000 rpm 15 min, +4° C. • centrifugation of the supernatant 180 000 g 30 min, +4° C. • pellet was dissolved into 8 ml of A-buffer • not resuspended material was removed by centrifugation 5000 rpm 15 min, +4° C. • the clear supernatant was divided into 100 μl aliquots and were stored frozen until determination of enzymatic activity.
The amount of 17β-HSD2 was analysed by immunoblotting and total protein concentration of each extract batch was determined.
Recombinant protein (4 μg/ml) was incubated in 20 mM KH2PO4 pH 8.5 with 50 nM estradiol (including 800 000 cpm/ml of ^3H-estradiol) and 1 mM NADH for 30 min at RT, in the presence of the potential inhibitor at concentrations 1 μM or 0.1 μM. Inhibitor stock solutions were prepared in DMSO. Final concentration of DMSO was adjusted to 1% in all samples. The enzyme reaction was stopped by addition of 10% trichloroacetic acid (final concentration). Samples were centrifuged in a microtiter plate at 4000 rpm for 10 min. Supernatants were applied to reverse phase HPLC on a Waters Symmetry C18 column, equipped with a Waters Sentry Guard column. Isocratic HPLC runs were performed at RT at a flow rate of 1 ml/min in acetonitrile:water 48:52 as running solvent. Radioactivity was monitored in the eluate by a Packard Flow Scintillation Analyzer. Total radioactivity for estrone and estradiol were determined in each sample and percent conversion of estradiol to estrone was calculated according to the following formula:
as §1

[3] = inhibitor at 1 μM, 30 nM estrone, 1 mM NADPH, 30 min at RT
[4] = inhibitor at 1 μM, 50 nM estradiol, 1 mM NADH, 30 min at RT

Row | Structure (SMILES) | inhibition at 1 µM [1, 3] [%] | inhibition at 1 µM [2, 4] [%] | inhibition at 1 µM [1] [%] | inhibition at 1 µM [2] [%]
1 | CC(=O)Oc1ccccc1C(=O)Oc1ccc2c(c1)CCC1C2CC[C@]2(C)C(=O)C[C@@H](CCC(=O)Nc3ncc(C)s3)C12 (stereo partly drawn) [Compound 19, 2-Acetoxy-benzoic acid (13S,15R)-13-methyl-15-[2-(5-methylthiazol-2-ylcarbamoyl)-ethyl]-17-oxo-7,8,9,11,12,13,14,15,16,17-decahydro-6H-cyclopenta[a]phenanthren-3-yl ester] | 58 | 0 |  | 
2 | CCOC(=O)Oc1ccc2c(c1)CCC1C2CC[C@]2(C)C(=O)C[C@@H](CCC(=O)Nc3ncc(C)s3)C12 (stereo partly drawn) [Compound 20, Ethyl ((13S,15R)-13-methyl-15-(3-((5-methylthiazol-2-yl)amino)-3-oxopropyl)-17-oxo-7,8,9,11,12,13,14,15,16,17-decahydro-6H-cyclopenta[a]phenanthren-3-yl) carbonate] | 52 | 0 |  | 
3 | Cc1cnc(NC(=O)CC[C@@H]2CC(=O)[C@@]3(C)CCC4c5ccc(OS(=O)(=O)N(C)C)cc5CCC4C23)s1 (stereo partly drawn) [Compound 23, Dimethyl-sulphamic acid (13S,15R)-13-methyl-15-[2-(5-methylthiazol-2-ylcarbamoyl)-ethyl]-17-oxo-7,8,9,11,12,13,14,15,16,17-decahydro-6H-cyclopenta[a]phenanthren-3-yl ester] | 74 | 6 |  | 
4 | Cc1cnc(NC(=O)CC[C@@H]2CC(=O)[C@@]3(C)CCC4c5ccc(OC(=O)N(C)C)cc5CCC4C23)s1 (stereo partly drawn) [Compound 25, Dimethyl-carbamic acid (13S,15R)-13-methyl-15-[2-(5-methylthiazol-2-ylcarbamoyl)-ethyl]-17-oxo-7,8,9,11,12,13,14,15,16,17-decahydro-6H-cyclopenta[a]phenanthren-3-yl ester] |  |  | 52 | 6
5 | Cc1cnc(NC(=O)CC[C@@H]2CC(=O)[C@@]3(C)CCC4c5ccc(OC(=O)CN(C)C)cc5CCC4C23)s1 (stereo partly drawn) [Compound 26, Dimethylamino-acetic acid (13S,15R)-13-methyl-15-[2-(5-methylthiazol-2-ylcarbamoyl)-ethyl]-17-oxo-7,8,9,11,12,13,14,15,16,17-decahydro-6H-cyclopenta[a]phenanthren-3-yl ester] | 96 | 6 |  | 
6 | Cc1ccc(S(=O)(=O)Oc2ccc3c(c2)CCC2C3CC[C@]3(C)C(=O)C[C@@H](CCC(=O)Nc4ncc(C)s4)C23)cc1 (stereo partly drawn) [Compound 27, Toluene-4-sulphonic acid (13S,15R)-13-methyl-15-[2-(5-methylthiazol-2-ylcarbamoyl)-ethyl]-17-oxo-7,8,9,11,12,13,14,15,16,17-decahydro-6H-cyclopenta[a]phenanthren-3-yl ester] | 81 | 5 |  | 
7 | Cc1cnc(NC(=O)CC[C@@H]2CC(=O)[C@@]3(C)CCC4c5cc(C(C)(C)C)c(O)cc5CCC4C23)s1 (stereo partly drawn) [Compound 31, 3-((13S,15R)-2-(tert-butyl)-3-hydroxy-13-methyl-17-oxo-7,8,9,11,12,13,14,15,16,17-decahydro-6H-cyclopenta[a]phenanthren-15-yl)-N-(5-methylthiazol-2-yl)propanamide] | 87 | 12 |  | 
8 | Cc1cnc(NC(=O)CC[C@@H]2CC(=O)[C@@]3(C)CCC4c5cc(C(C)C)c(O)cc5CCC4C23)s1 (stereo partly drawn) [Compound 32, 3-((13S,15R)-3-hydroxy-2-isopropyl-13-methyl-17-oxo-7,8,9,11,12,13,14,15,16,17-decahydro-6H-cyclopenta[a]phenanthren-15-yl)-N-(5-methylthiazol-2-yl)propanamide] | 84 | 1 |  | 
9 | COc1cc2c(cc1C(C)=O)C1CC[C@]3(C)C(=O)C[C@@H](CCC(=O)Nc4ncc(C)s4)C3C1CC2 (stereo partly drawn) [Compound 33, 3-((13S,15R)-2-acetyl-3-methoxy-13-methyl-17-oxo-7,8,9,11,12,13,14,15,16,17-decahydro-6H-cyclopenta[a]phenanthren-15-yl)-N-(5-methylthiazol-2-yl)propanamide] | 71 | 3 |  | 
10 | Cc1cnc(NC(=O)CC[C@@H]2CC(=O)[C@@]3(C)CCC4c5cc([N+](=O)[O-])c(O)cc5CCC4C23)s1 (stereo partly drawn) [Compound 34, 3-((13S,15R)-3-hydroxy-13-methyl-2-nitro-17-oxo-7,8,9,11,12,13,14,15,16,17-decahydro-6H-cyclopenta[a]phenanthren-15-yl)-N-(5-methylthiazol-2-yl)propanamide] | 91 | 10 |  | 
11 | Cc1cnc(NC(=O)CC[C@@H]2CC(=O)[C@@]3(C)CCC4c5cc([N+](=O)[O-])c(O)c([N+](=O)[O-])c5CCC4C23)s1 (stereo partly drawn) [Compound 36, 3-((13S,15R)-3-hydroxy-13-methyl-2,4-dinitro-17-oxo-7,8,9,11,12,13,14,15,16,17-decahydro-6H-cyclopenta[a]phenanthren-15-yl)-N-(5-methylthiazol-2-yl)propanamide] |  |  | 87 | 33
12 | Cc1cnc(NC(=O)CC[C@@H]2CC(=O)[C@@]3(C)CCC4c5cc(N)c(O)cc5CCC4C23)s1 (stereo partly drawn) [Compound 37, 3-((13S,15R)-2-amino-3-hydroxy-13-methyl-17-oxo-7,8,9,11,12,13,14,15,16,17-decahydro-6H-cyclopenta[a]phenanthren-15-yl)-N-(5-methylthiazol-2-yl)propanamide] | 88 | 4 |  | 
13 | Cc1cnc(NC(=O)CC[C@@H]2CC(=O)[C@@]3(C)CCC4c5ccc(O)c(N)c5CCC4C23)s1 (stereo partly drawn) [Compound 38, 3-((13S,15R)-4-amino-3-hydroxy-13-methyl-17-oxo-7,8,9,11,12,13,14,15,16,17-decahydro-6H-cyclopenta[a]phenanthren-15-yl)-N-(5-methylthiazol-2-yl)propanamide] | 87 | 9 |  | 
14 | Cc1cnc(NC(=O)CC[C@@H]2CC(=O)[C@@]3(C)CCC4c5ccc(OS(C)(=O)=O)c([N+](=O)[O-])c5CCC4C23)s1 (stereo partly drawn) [Compound 39, (13S,15R)-13-methyl-15-(3-((5-methylthiazol-2-yl)amino)-3-oxopropyl)-4-nitro-17-oxo-7,8,9,11,12,13,14,15,16,17-decahydro-6H-cyclopenta[a]phenanthren-3-yl methanesulfonate] | 96 | 1 |  | 
